Laboratory results reported in US20240293493A1, “COMPOSITION FOR ALLEVIATING, TREATING, OR PREVENTING MUSCULAR DISEASES, OR IMPROVING MUSCULAR FUNCTIONS, CONTAINING KOREAN MINT EXTRACT OR TILIANIN AS ACTIVE INGREDIENT” (AAT COSTECH CO., LTD., priority 2020, published 2024).

Key:
atrogin-1 = atrogin-1 mRNA expression in TNF-α-treated L6 myotubes (RT-PCR); assay type: cell-based; details: TNF-α treatment, 20 µM or 40 µM tilianin
Experimental: (§1) L6 myoblasts (ATCC), which are muscle cells, were added to a 6-well plate with DMEM (Hyclone) containing 10% FBS (Hyclone) at 1×10^5 cells/mL. When the cell density reached about 80-85%, the medium remaining in the well was removed and differentiation into myotubes was induced by treating the cells with DMEM (Hyclone) containing 2% HS (Hyclone). The differentiation was performed for a total of 6 days while replacing the medium with a fresh one every 2 days. After the differentiation, […], which was dissolved in DMEM (Hyclone) containing 50 ng/ml tumor necrosis factor alpha (TNF-α; PeproTech, Rocky Hills, NJ, USA). 12 hours later, total RNA was isolated using a TRIzol reagent (Takara, Otsu, Japan). The isolated total RNA was quantified using NanoDrop 1000 (Thermo Fisher Scientific Inc., Waltham, MA, USA). cDNA was synthesized from 16 μL of the quantified RNAs using a reverse transcriptase premix (ELPIS-Biotech) and a PCR machine (Gene Amp PCR System 2700; Applied Biosystems, Foster City, CA, USA) under the condition of 42° C. for 55 minutes and 70° C. for 15 minutes. PCR was performed by repeating 30 cycles of 95° C. for 30 seconds, 60° C. for 1 minute and 72° C. for 1 minute using 1 μL of cDNA from 16 μL of the produced cDNA, specific primers described below (Bioneer, Daejeon, Korea) and a PCR premix (ELPIS-Biotech). […]

[1] = test system: muscle atrophy-induced mice; assay: Tibialis anterior muscle weight in muscle atrophy-induced mice; assay type: in vivo, mice (C57BL/6J); details: tilianin 20 mg/kg orally every day, compared with muscle atrophy group
Experimental: (§2) 7-week-old male mice (C57BL/6J; DBL, Korea) were purchased as experimental animals. The breeding environment was maintained at a temperature of 23±2° C. and a relative humidity of 55±10%. Before the start of the experiment, a total of 20 mice were randomly divided into groups of 5 mice each. After a week of acclimation, anesthesia was induced by intraperitoneal injection of 325 mg/kg tribromoethanol (Sigma-Aldrich). After the anesthesia, the right hindlimb gastrocnemius muscle and the right sole of the mice in a muscle atrophy group and a sample administration group were stapled using a skin stapler (Unidus, Chungcheongbuk-do, Korea) to damage the muscle and keep the right hindlimb from moving. This state was maintained for a week. […]
(§3) After inducing muscle atrophy in the same manner as in Example 12-1, tilianin was orally administered every day at a concentration of 20 mg/kg. Then, muscular strength and muscle weight were measured in the same manner as in Example 12-2 and Example 12-3.

MuRF1 = MuRF1 mRNA expression in TNF-α-treated L6 myotubes (RT-PCR); assay type: cell-based; details: TNF-α treatment, 20 µM or 40 µM tilianin
Experimental: as §1

[2] = test system: muscle atrophy-induced mice; assay: Muscular strength in mice with skin-stapler immobilization muscle atrophy; assay type: in vivo, mice (C57BL/6J); details: tilianin 20 mg/kg orally every day, compared with muscle atrophy group
Experimental: as §2
After the end of the oral administration period, the muscular strength of the mice was measured using a muscular strength meter (Panlab, Barcelona, Spain). […]
as §3

mTOR = mTOR activity in L6 myotubes by mTOR sandwich ELISA kit; assay type: cell-based; details: 20 μM or 40 μM tilianin, vs control group
Experimental: It is known that the activation of the mTOR protein by phosphorylation can induce muscle protein synthesis in muscle cells by the PI3K/Akt signaling pathway and can activate proteins involved in increase of muscle mass. Therefore, in order to investigate the activity of inducing muscle formation of Korean mint, the activity of mTOR was investigated using a mTOR sandwich ELISA kit (Cell Signaling Technology, Beverly, MA, USA).
L6 myoblasts (ATCC; Manassas, VA, USA) were seeded on a 6-well plate at 1×10^5 cells/well with Dulbecco's modified Eagle's medium (DMEM; Hyclone) containing 10% fetal bovine serum (FBS; Hyclone, Logan, UT, USA) and then cultured for 24 hours. […]
(Hyclone) containing 2% horse serum (HS; Hyclone). […] Proteins in the obtained cell lysate were quantified at a concentration of 1 mg/mL by Bradford assay (Bio-Rad Laboratories Inc., Hercules, CA, USA). […] 2 minutes later, the mTOR level in the myotubes treated with the extract of Korean mint leaf was measured by measuring absorbance at 450 nm. […] The difference between groups was analyzed through Duncan's multiple range test by one-way analysis of variance using the SPSS25.0 statistical package (SPSS Inc., Chicago, IL, USA). […]
mTOR activity was measured in the same manner as in Example 3 except that the extracts of the aerial part of Korean mint of Example 1-2 to Example 1-8 were treated at 80 μg/mL. […]

COc1ccc(-c2cc(=O)c3c(O)cc(O[C@@H]4O[C@H](CO)[C@@H](O)[C@H](O)[C@H]4O)cc3o2)cc1 [tilianin]
mRNA of atrogin-1 (FIG. 4) (atrogin-1): decreased
increase of muscle weight [1]: 15.2%
mRNA of MuRF1 (FIG. 4) (MuRF1): decreased
increase of muscular strength [2]: 30.3%
mTOR activity (FIG. 3) (mTOR): significantly increased
